Reference: US5529999A, “Antitumor compositions and methods of treatment” (Eli Lilly and Company, priority 1994, dated 1996)
≈ marks a conversion by molar mass, not a printed value.

System: CCRF-CEM cells
Test: growth inhibition / cytotoxicity against CCRF-CEM human leukemia cells in vitro
Format: cell-based
Conditions: serum-free UltraCHO media, 72 hours incubation, read-out: IC50 (concentration required for 50% inhibition of growth), CCRF-CEM
Description: The in vitro data were obtained using CCRF-CEM cells, a human leukemia cell line. Foley et al., Cancer, 18:522 (1965). These cells were grown in albumin-free UltraCHO® media (BioWhittaker, Inc., Walkersville, Md.) using standard techniques. See, e.g., G. B. Grindey, et al., Journal of Molecular Pharmacology, 16:601 (1979). Dose-response curves were generated for various compounds to determine the concentration required for 50% inhibition of growth (IC50). Cluster plates were prepared in duplicate with the compound at various concentrations. Test compounds were dissolved initially in DMSO at a concentration of 4 mg/ml and further diluted with solvent to the desired concentration. Cells in serum-free UltraCHO media were added to the well at a final concentration of 4.8×10^4 cells/well in a total volume of 2.0 ml. After 72 hours of incubation (95% air, 5% CO2), cell numbers were determined on a ZBI Coulter counter. Cell number for indicated controls at the end of incubation was usually (4-6)×10^5 cells/well. Cell viability was also measured by staining with 3-[4,5-dimethylthiazol-2-yl]-2,5-diphenyl-tetrazolium bromide (MTT) using standard techniques. R. I. Freshney, Culture of Animal Cells: A Manual of Basic Technique, 253-254 (2d ed. 1987).
Column 1 refers to the example number of the compound tested; Column 2 depicts the in vitro cytoxicity against CCRF-CEM cells by relating the concentration of the test compound required for 50% inhibition of growth (IC50) of the cells in the well. The designation "CSQ" refers to the compound 4-amino-N-(5-chloro-2-quinoxalinyl)benzenesulfonamide and is used as a comparator.

Nc1ccc(S(=O)(=O)Nc2cnc3c(Cl)cccc3n2)cc1 [CSQ, 4-amino-N-(5-chloro-2-quinoxalinyl)benzenesulfonamide, reference compound]
IC50: 0.8 µg/mL (≈ 2.39 µM)

CN(C)c1ccc(S(=O)(=O)Nc2cnc3cc(Cl)c(Cl)cc3n2)cc1 [Example 1, 4-N',N'-dimethylamino-N-(6,7-dichloro-2-quinoxalinyl)benzenesulfonamide]
IC50: 0.8 µg/mL (≈ 2.01 µM)

CN(C)c1ccc(S(=O)(=O)Nc2cnc3c(Cl)cccc3n2)cc1 [Example 2, 4-N',N'-dimethylamino-N-(5-chloro-2-quinoxalinyl)benzenesulfonamide]
IC50: 0.1 µg/mL (≈ 0.276 µM)

CN1CCc2cc(S(=O)(=O)Nc3cnc4c(Cl)cccc4n3)ccc21 [Example 3, N-(5-chloro-2-quinoxalinyl)-2,3-dihydro-1-methyl-1H-indole-5-sulfonamide]
IC50: 0.3 µg/mL (≈ 0.8 µM)

O=S(=O)(Nc1cnc2c(Cl)cccc2n1)c1ccc2c(c1)CCO2 [Example 4, N-(5-chloro-2-quinoxalinyl)-2,3-dihydrobenzofuran-5-sulfonamide]
IC50: 0.3 µg/mL (≈ 0.829 µM)

O=S(=O)(Nc1cnc2c(Cl)cccc2n1)c1ccc2occc2c1 [Example 5, N-(5-chloro-2-quinoxalinyl)benzofuran-5-sulfonamide]
IC50: 0.2 µg/mL (≈ 0.556 µM)

Cn1ccc2cc(S(=O)(=O)Nc3cnc4c(Cl)cccc4n3)ccc21 [Example 6, N-(5-chloro-2-quinoxalinyl)-1-methyl-1H-indole-5-sulfonamide]
IC50: 0.4 µg/mL (≈ 1.07 µM)

CN(C)c1ccc(S(=O)(=O)Nc2cnc3cc(Cl)ccc3n2)cc1 [Example 7, 4-N',N'-dimethylamino-N-(6-chloro-2-quinoxalinyl)benzenesulfonamide]
IC50: 1.2 µg/mL (≈ 3.31 µM)

CN1CCc2cc(S(=O)(=O)Nc3cnc4cc(Cl)ccc4n3)ccc21 [Example 8, N-(6-chloro-2-quinoxalinyl)-2,3-dihydro-1-methyl-1H-indole-5-sulfonamide]
IC50: 1.5 µg/mL (≈ 4 µM)

CN(C)c1ccc(S(=O)(=O)Nc2cnc3ccc(Cl)cc3n2)cc1 [Example 9, 4-(N',N'-dimethylamino)-N-(7-chloro-2-quinoxalinyl)benzenesulfonamide]
IC50: 10.4 µg/mL (≈ 28.7 µM)

CN1CCc2cc(S(=O)(=O)Nc3cnc4ccc(Cl)cc4n3)ccc21 [Example 10, N-(7-chloro-2-quinoxalinyl)-2,3-dihydro-1-methyl-1H-indole-5-sulfonamide]
IC50: 10.8 µg/mL (≈ 28.8 µM)

CN(C)c1ccc(S(=O)(=O)Nc2cnc3cccc(Cl)c3n2)cc1 [Example 11, 4-N',N'-dimethylamino-N-(8-chloro-2-quinoxalinyl)benzenesulfonamide]
IC50: 15.1 µg/mL (≈ 41.6 µM)

CN(C)c1ccc(S(=O)(=O)Nc2cnc3c(Cl)c(Cl)ccc3n2)cc1 [Example 12, 4-N',N'-dimethylamino-N-(5,6-dichloro-2-quinoxalinyl)benzenesulfonamide]
IC50: 7.2 µg/mL (≈ 18.1 µM)

O=S(=O)(Nc1cnc2c(Cl)c(Cl)ccc2n1)c1ccc2c(c1)CCO2 [Example 13, N-(5,6-dichloro-2-quinoxalinyl)-2,3-dihydrobenzofuran-5-sulfonamide]
IC50: 6 µg/mL (≈ 15.1 µM)

CN(C)c1ccc(S(=O)(=O)Nc2cnc3ccc(Cl)c(Cl)c3n2)cc1 [Example 14, 4-N',N'-dimethylamino-N-(7,8-dichloro-2-quinoxalinyl)benzenesulfonamide]
IC50: 4.6 µg/mL (≈ 11.6 µM)

O=S(=O)(Nc1cnc2ccc(Cl)c(Cl)c2n1)c1ccc2c(c1)CCO2 [Example 15, N-(7,8-dichloro-2-quinoxalinyl)-2,3-dihydrobenzofuran-5-sulfonamide]
IC50: 10.8 µg/mL (≈ 27.3 µM)
